Measured values published in ChEMBL document CHEMBL3885881, “DrugMatrix”.

Species on record: Rattus norvegicus
Assay: DrugMatrix - Regimen: Daily Repeat
Format: toxicity, organism-based, Sprague-Dawley
Set-up: regimen Daily Repeat, gender Male, age 6-8 weeks
Settings: in vivo, po, route oral GAVAGE, […]; for ABSOLUTE BASOPHIL / ABSOLUTE EOSINOPHIL / ABSOLUTE LYMPHOCYTE / ABSOLUTE MONOCYTE / ABSOLUTE SEGMENTED NEUTROPHIL / BASOPHIL / EOSINOPHIL / ERYTHROCYTE COUNT / HEMATOCRIT / HEMOGLOBIN / LEUKOCYTE COUNT / LYMPHOCYTE / MEAN CORPUSCULAR HEMOGLOBIN / MEAN CORPUSCULAR HEMOGLOBIN CONCENTRATION / MEAN CORPUSCULAR VOLUME / MONOCYTE / NEUTROPHIL / NUCLEATED RED BLOOD CELLS / PLATELET COUNT: tissue Blood; for ALANINE AMINOTRANSFERASE / ALBUMIN / ALKALINE PHOSPHATASE / ASPARTATE AMINOTRANSFERASE / BLOOD UREA NITROGEN / CARBON DIOXIDE / CHLORIDE / CHOLESTEROL / CREATINE PHOSPHOKINASE / CREATININE / GLUCOSE / LACTATE DEHYDROGENASE / LIPASE / PHOSPHORUS / POTASSIUM / SODIUM / TOTAL BILIRUBIN / TOTAL PROTEIN / URIC ACID: tissue Plasma
[1] = 79 mg/kg, 72 h, dose level Low, time 3 day
[2] = 79 mg/kg, 120 h, dose level Low, time 5 day
[3] = 2500 mg/kg, 72 h, dose level High, time 3 day
[4] = 2500 mg/kg, 120 h, dose level High, time 5 day

COc1ccc2cc(CCC(C)=O)ccc2c1 [NABUMETONE]
ABSOLUTE BASOPHIL [1]: 0 CELLS/uL | ABSOLUTE EOSINOPHIL [1]: 0 CELLS/uL | ABSOLUTE LYMPHOCYTE [1]: 14572 CELLS/uL | ABSOLUTE MONOCYTE [1]: 0 CELLS/uL | ABSOLUTE SEGMENTED NEUTROPHIL [1]: 1228 CELLS/uL | BASOPHIL [1]: 0% | EOSINOPHIL [1]: 0% | ERYTHROCYTE COUNT [1]: 5.17 x10E6/uL | HEMATOCRIT [1]: 32.13% | HEMOGLOBIN [1]: 12.87 G/DL | LEUKOCYTE COUNT [1]: 15.8 x10E3/uL | LYMPHOCYTE [1]: 92.33% | MEAN CORPUSCULAR HEMOGLOBIN [1]: 24.87 pg | MEAN CORPUSCULAR HEMOGLOBIN CONCENTRATION [1]: 40.07 G/DL | MEAN CORPUSCULAR VOLUME [1]: 62.1 fL | MONOCYTE [1]: 0% | NEUTROPHIL [1]: 7.67% | NUCLEATED RED BLOOD CELLS [1]: 0 /100WBC | PLATELET COUNT [1]: 1308.67 x10E3/uL | ALANINE AMINOTRANSFERASE [1]: 72.33 u/L | ALBUMIN [1]: 4 G/DL | ALKALINE PHOSPHATASE [1]: 371 u/L | ASPARTATE AMINOTRANSFERASE [1]: 79.33 u/L | BLOOD UREA NITROGEN [1]: 15.67 mg/dL | CARBON DIOXIDE [1]: 31 mmol/L | CHLORIDE [1]: 103 MEQ/L | CHOLESTEROL [1]: 83.67 mg/dL | CREATINE PHOSPHOKINASE [1]: 226.33 u/L | CREATININE [1]: 0.12 mg/dL | GLUCOSE [1]: 150.67 mg/dL | LACTATE DEHYDROGENASE [1]: 93.33 u/L | LIPASE [1]: 10 u/L | PHOSPHORUS [1]: 12.3 mg/dL | POTASSIUM [1]: 6.52 MEQ/L | SODIUM [1]: 144.77 MEQ/L | TOTAL BILIRUBIN [1]: 0.13 mg/dL | TOTAL PROTEIN [1]: 5.33 G/DL | URIC ACID [1]: 1.73 mg/dL | ABSOLUTE BASOPHIL [2]: 0 CELLS/uL | ABSOLUTE EOSINOPHIL [2]: 33.67 CELLS/uL | ABSOLUTE LYMPHOCYTE [2]: 9495 CELLS/uL | ABSOLUTE MONOCYTE [2]: 148 CELLS/uL | ABSOLUTE SEGMENTED NEUTROPHIL [2]: 1090 CELLS/uL | BASOPHIL [2]: 0% | EOSINOPHIL [2]: 0.33% | ERYTHROCYTE COUNT [2]: 5.45 x10E6/uL | HEMATOCRIT [2]: 33.1% | HEMOGLOBIN [2]: 13.23 G/DL | LEUKOCYTE COUNT [2]: 10.77 x10E3/uL | LYMPHOCYTE [2]: 88.33% | MEAN CORPUSCULAR HEMOGLOBIN [2]: 24.3 pg | MEAN CORPUSCULAR HEMOGLOBIN CONCENTRATION [2]: 39.97 G/DL | MEAN CORPUSCULAR VOLUME [2]: 60.83 fL | MONOCYTE [2]: 1.33% | NEUTROPHIL [2]: 10% | NUCLEATED RED BLOOD CELLS [2]: 0 /100WBC | PLATELET COUNT [2]: 1115 x10E3/uL | ALANINE AMINOTRANSFERASE [2]: 69.33 u/L | ALBUMIN [2]: 4.1 G/DL | ALKALINE PHOSPHATASE [2]: 332 u/L | ASPARTATE AMINOTRANSFERASE [2]: 95.67 u/L | BLOOD UREA NITROGEN [2]: 12.33 mg/dL | CARBON DIOXIDE [2]: 33 mmol/L | CHLORIDE [2]: 103 MEQ/L | CHOLESTEROL [2]: 61.33 mg/dL | CREATINE PHOSPHOKINASE [2]: 321 u/L | CREATININE [2]: 0.15 mg/dL | GLUCOSE [2]: 173.33 mg/dL | LACTATE DEHYDROGENASE [2]: 214.67 u/L | LIPASE [2]: 9.67 u/L | PHOSPHORUS [2]: 11.03 mg/dL | POTASSIUM [2]: 5.83 MEQ/L | SODIUM [2]: 145.17 MEQ/L | TOTAL BILIRUBIN [2]: 0.13 mg/dL | TOTAL PROTEIN [2]: 5.53 G/DL | URIC ACID [2]: 1.13 mg/dL | ABSOLUTE BASOPHIL [3]: 0 CELLS/uL | ABSOLUTE EOSINOPHIL [3]: 0 CELLS/uL | ABSOLUTE LYMPHOCYTE [3]: 9646 CELLS/uL | ABSOLUTE MONOCYTE [3]: 275 CELLS/uL | ABSOLUTE SEGMENTED NEUTROPHIL [3]: 3829 CELLS/uL | BASOPHIL [3]: 0% | EOSINOPHIL [3]: 0% | ERYTHROCYTE COUNT [3]: 4.08 x10E6/uL | HEMATOCRIT [3]: 26.8% | HEMOGLOBIN [3]: 10.45 G/DL | LEUKOCYTE COUNT [3]: 13.75 x10E3/uL | LYMPHOCYTE [3]: 70% | MEAN CORPUSCULAR HEMOGLOBIN [3]: 25.55 pg | MEAN CORPUSCULAR HEMOGLOBIN CONCENTRATION [3]: 38.9 G/DL | MEAN CORPUSCULAR VOLUME [3]: 65.7 fL | MONOCYTE [3]: 2% | NEUTROPHIL [3]: 28% | NUCLEATED RED BLOOD CELLS [3]: 0 /100WBC | PLATELET COUNT [3]: 873.5 x10E3/uL | ALANINE AMINOTRANSFERASE [3]: 41 u/L | ALBUMIN [3]: 2.7 G/DL | ALKALINE PHOSPHATASE [3]: 286.5 u/L | ASPARTATE AMINOTRANSFERASE [3]: 125 u/L | BLOOD UREA NITROGEN [3]: 15.5 mg/dL | CARBON DIOXIDE [3]: 28.5 mmol/L | CHLORIDE [3]: 94 MEQ/L | CHOLESTEROL [3]: 75 mg/dL | CREATINE PHOSPHOKINASE [3]: 410 u/L | CREATININE [3]: 0.17 mg/dL | GLUCOSE [3]: 134 mg/dL | LACTATE DEHYDROGENASE [3]: 144 u/L | LIPASE [3]: 9 u/L | PHOSPHORUS [3]: 12 mg/dL | POTASSIUM [3]: 6.89 MEQ/L | SODIUM [3]: 136.5 MEQ/L | TOTAL BILIRUBIN [3]: 0.1 mg/dL | TOTAL PROTEIN [3]: 4.95 G/DL | URIC ACID [3]: 1.35 mg/dL | ABSOLUTE BASOPHIL [4]: 0 CELLS/uL | ABSOLUTE EOSINOPHIL [4]: 0 CELLS/uL | ABSOLUTE LYMPHOCYTE [4]: 3068 CELLS/uL | ABSOLUTE MONOCYTE [4]: 0 CELLS/uL | ABSOLUTE SEGMENTED NEUTROPHIL [4]: 8732 CELLS/uL | BASOPHIL [4]: 0% | EOSINOPHIL [4]: 0% | ERYTHROCYTE COUNT [4]: 2.58 x10E6/uL | HEMATOCRIT [4]: 15.9% | HEMOGLOBIN [4]: 6.6 G/DL | LEUKOCYTE COUNT [4]: 11.8 x10E3/uL | LYMPHOCYTE [4]: 26% | MEAN CORPUSCULAR HEMOGLOBIN [4]: 25.6 pg | MEAN CORPUSCULAR HEMOGLOBIN CONCENTRATION [4]: 41.5 G/DL | MEAN CORPUSCULAR VOLUME [4]: 61.8 fL | MONOCYTE [4]: 0% | NEUTROPHIL [4]: 74% | NUCLEATED RED BLOOD CELLS [4]: 0 /100WBC | PLATELET COUNT [4]: 1731 x10E3/uL | ALANINE AMINOTRANSFERASE [4]: 34 u/L | ALBUMIN [4]: 2.4 G/DL | ALKALINE PHOSPHATASE [4]: 326 u/L | ASPARTATE AMINOTRANSFERASE [4]: 66 u/L | BLOOD UREA NITROGEN [4]: 17 mg/dL | CARBON DIOXIDE [4]: 28 mmol/L | CHLORIDE [4]: 97 MEQ/L | CHOLESTEROL [4]: 55 mg/dL | CREATINE PHOSPHOKINASE [4]: 158 u/L | CREATININE [4]: 0.13 mg/dL | GLUCOSE [4]: 102 mg/dL | LACTATE DEHYDROGENASE [4]: 80 u/L | LIPASE [4]: 9 u/L | PHOSPHORUS [4]: 7.6 mg/dL | POTASSIUM [4]: 6.79 MEQ/L | SODIUM [4]: 138 MEQ/L | TOTAL BILIRUBIN [4]: 0.2 mg/dL | TOTAL PROTEIN [4]: 4.7 G/DL | URIC ACID [4]: 0.9 mg/dL
